row,SMILES,melting point
1,COc1cc2c(c3c1OC(C)(C)C3)C(c1ccc(=O)n(Cc3ccc(C(N)=O)cc3)c1)=NC(C)(C)C2,262 to 266 °C
2,O=C1c2c(cc(O)c(O)c2[N+](=O)[O-])CC1CN1CCOCC1 (stereo unspecified),193 to 195 °C
3,COc1cccc2c1C(=CC(=O)c1ccccc1)OC2=O,165 °C
4,O=C1CCCN1[C@@H]1c2ccccc2OCC[C@H]1O (relative stereo),151 to 153 °C
5,CC(C)(C)c1nc(-c2ccccc2)[nH]c1C(C)(C)C,156 to 158 °C
6,Cc1ncc(Cn2c(S)nc3ccccc32)o1,153 °C
7,CCCCCCCCCCc1cc2c(s1)-n1c(C)nnc1CN=C2c1ccccc1OC,90 to 92 °C
8,CS(=O)(=O)OCCCCCCNC(=O)CNC(=O)OCc1ccccc1,82 to 83 °C
9,O=C(O)Cc1coc2cc(OCc3ccc(OCc4ccc(C(F)(F)F)cc4)cc3)ccc12,161 to 163 °C
10,CCOC(=O)c1cnc(-c2ccccc2[N+](=O)[O-])[nH]c1=O,171 to 175 °C
11,Cc1cc(-c2nc3ccccc3c(=O)[nH]2)cc(C)c1OCCO,260 to 261 °C
12,COc1c(-c2noc3ccsc23)ccc2c1O2,88 to 90 °C
13,Sc1nsnc1C12CN3CC1C2C3,205 to 207 °C
14,COc1ccc(-c2nc3c(F)cccc3s2)cc1OC,129 °C
15,CC[C@@]1(CC(=O)N[C@@H](C)c2ccccc2)CCCN2CCc3c([nH]c4ccccc34)[C@@H]21,188 to 192 °C
16,O=[N+]([O-])c1cccc(Cl)c1NCc1ccccc1Cl,69 to 71 °C
17,C[C@@H](O)[C@H]1CC[C@H]2[C@@H]3CC=C4CC(=O)CC[C@]4(C)[C@H]3CC[C@]12C,171 to 175 °C
18,CC1(C)CCC(C)(C)c2cc(C(N)C(=O)Nc3ccc(C(=O)O)c(O)c3)ccc21 (stereo unspecified),240 to 241 °C
19,COc1cc2ncnc(N3CCC(N)CC3)c2cc1OC,133 to 135 °C
20,O=[N+]([O-])c1ccc(OCCCCCOc2ccc([N+](=O)[O-])cc2)cc1,101 to 102 °C
21,Cc1cc2c(-c3cccc(C=O)c3)c(CC(=O)Nc3ccc(F)cc3C(F)(F)F)c(=O)oc2cc1Cl,214 to 215 °C
22,COc1ccc(NC(=O)c2ccc(F)c(F)c2)cc1NS(=O)(=O)c1ccc(N)cc1,229 to 231 °C
23,CCC(NCC(F)(F)F)c1ccc(Cl)c2nc3n(c12)CCCN3c1ccc(Cl)cc1Cl (stereo unspecified),133 to 135 °C
24,O=C1CN(S(=O)(=O)c2ccccc2)c2ccccc2N1,183 to 185 °C
25,O=C(Nc1ccc(C(F)(F)F)cc1)NC1CCN(S(=O)(=O)c2ccc(Cl)cc2)CC1,266 to 270 °C
26,CC1(C)CCC(C)(C)c2cc(C=O)c(Br)cc21,114 °C

row,SMILES,melting point
1,O=C(O)C1CCCCc2c(-c3ccc(Cl)cc3)noc2C1 (stereo unspecified),215 °C
2,CCOC(=O)c1nnc2ccc(-c3cccs3)cc2c1O,258 to 260 °C
3,Nc1nc(SC(c2ccccc2)c2ccccc2)c2[nH]cnc2n1,226 to 227 °C
4,O=C(NCCCCO)OCc1ccccc1,80 to 81 °C
5,Ic1cc(I)cc(Cc2cc(I)cc(I)c2)c1,104 to 107 °C
6,CCC(C)NC(=O)c1nc2cnn(CC)c2nc1-c1ccccc1 (stereo unspecified),150 to 151 °C
7,CC1CC2=C(CCC(Cc3ccc(O)cc3)C2)NC1=O (stereo unspecified),230 to 235 °C
8,Cc1c(C(=O)Nc2ccc(-c3ccc(S(=O)(=O)N(C)C(C(=O)O)C(C)C)cc3)cc2)oc2cccc(C(O)CO)c12 (stereo unspecified),222 to 225 °C
9,CCCN1C(=O)N2CCN=C2c2c1ncn2C,110 to 112 °C
10,CCCCCCCNC(=O)Nc1ccccc1C(=O)N1CCN(C(c2ccccc2)c2ccccc2)CC1,125 to 127 °C
11,CC(=O)NCc1ccc(CN2CCN(c3ccc([N+](=O)[O-])cc3)CC2)cc1,152 to 154 °C
12,Cc1ccc(S(=O)(=O)OCCCCO[N+](=O)[O-])cc1,38 to 40 °C
13,O=C1[C@H]2CCC[C@H]2Nc2cc([N+](=O)[O-])ccc2N1Cc1ccccc1 (relative stereo),174 to 176 °C
14,COCOc1ccc(C(C)=O)c(O)c1,38 to 39 °C
15,OCC(Nc1nc(-c2ccc(Br)cc2)cs1)C(F)(F)F (stereo unspecified),133 to 134 °C
16,Cn1c(=O)c2c(ncn2CCCN2CC=C(c3c[nH]c4ccc(Br)cc34)CC2)n(C)c1=O,195 °C
17,CC1=Nc2ccccc2C(=O)C1,198 to 200 °C
18,CCCCCCCCCCCCCCCCS(=O)(=O)Nc1cccc(C(=O)CBr)c1,92 to 95 °C
19,CCOc1cc(OC)cc(OC(=O)CC)c1C(=O)C=Cc1ccc(OC)cc1,77.5 °C
20,CCC(=O)C1C(=O)CC(c2ccc(C3CC(=O)C(C(=O)CC)C(=O)C3)cc2)CC1=O (stereo unspecified),261 °C
21,CC(=O)c1ccc(-c2ccc(Cl)cc2)cc1,100 to 101 °C
22,COc1cc(CNC(=O)c2ccc3n2Cc2ccccc2N(C(=O)CSc2ccc(Br)cc2)C3)ccc1O,168 °C
23,Nc1ccc(F)c(C(=O)NCC(=O)O)c1,252 to 254 °C
24,C=CCP(=O)(c1ccccc1)c1ccccc1,94 to 96 °C
25,CC(=O)OCCc1c(-c2ccccc2)nc(N)n2ncnc12,181 to 182 °C
26,c1ccc2cc(Cc3ncc(-c4ccc5cc(OCc6nnn[nH]6)ccc5c4)o3)ccc2c1,179 to 182 °C

row,SMILES,melting point
1,COC(=O)[C@H]1CN(CCO)CC[C@H]1NC(=O)OCc1ccccc1,73 °C
2,CN(C)Cc1ncccc1OC1SCC(O)C(O)C1O (stereo unspecified),79 °C
3,CNC(=S)n1nc(Oc2ncc(C(F)(F)F)cc2Cl)cc1C,63 to 65 °C
4,O=C(O)Cc1onc(O)c1Cl,155 °C
5,COC(=O)CCCc1cc2cc(Cl)ccc2n1S(=O)(=O)c1cccc(C(C)C)c1,94 to 97 °C
6,Cc1ccc(Nc2ccccn2)c(C)c1[N+](=O)[O-],178 to 179 °C
7,CCc1cn(C2CC(O)C(CCCCc3ccccc3)O2)c(=O)[nH]c1=O (stereo unspecified),160 to 162 °C
8,CCOC(=O)c1cc(OCc2ccccc2)c2nc(C)c(C)n2c1,140 to 141 °C
9,O=C(NCC1CN(c2ccc(N3CCOCC3=O)cc2)C(=O)O1)c1ccc(Cl)s1 (stereo unspecified),227 °C
10,COc1cc(OC)nc(NC(=O)NS(=O)(=O)c2cccc3sc(C)nc23)n1,187 to 194 °C
11,Cc1csc(-c2nc(-c3ccc(=O)n(C(C)C)n3)c(-c3ccccc3)nc2N)n1,238 to 240 °C
12,O=C(c1ccc(-c2ccccc2)cc1)C1(n2cncn2)CC1,154 to 155 °C
13,Cc1c(/C=C/C(=O)c2cn(C)c3ccccc23)ncn1C(c1ccccc1)(c1ccccc1)c1ccccc1,216 to 219 °C
14,Cc1ccc2[nH]nc(S(C)=O)c(=O)c2c1 (stereo unspecified),265 to 267 °C
15,O=[N+]([O-])C=Cc1ccsc1,94.5 to 96.5 °C
16,Cc1nn2c(-c3cccc(C(F)(F)F)c3)ccnc2c1C#N,149 to 150 °C
17,CC(=O)N1CCN(CC(C)NC(=O)c2ccc3c(c2)c(-c2ccccc2)nn3C)CC1 (stereo unspecified),98.8 to 100 °C
18,CC(C)(C)c1cc(C(=O)CCCCOc2ccc(C(=O)C(=O)O)cc2)cc(C(C)(C)C)c1O,144 to 145 °C
19,COC(=O)c1ccc(C(=O)NS(=O)(=O)c2ccc(CCNC(=O)CCC(C)C)cc2)cn1,204 to 206 °C
20,CCCc1cc(CCC)c2oc(C(=O)c3ccc(OC)cc3)c(C)c2c1O,119 to 121 °C
21,CSCCC(NC=O)C(N)=O (racemic),121 to 122 °C
22,CC(CCCc1ccc(F)cc1)c1cc(NC(N)=O)c2c(c1)OC(C)(C)c1ccncc1-2 (stereo unspecified),179 to 181 °C
23,CC(C)(C)N1C(=O)c2cc([N+](=O)[O-])cnc2C1=O,170 to 173 °C
24,O=C(c1ccncc1)N1CCN(Cc2ccc3c(c2)Cc2c(-c4ccsc4)n[nH]c2-3)CC1,218 to 220 °C
25,O=c1c(-c2ccccc2)c(Cn2cnc3c(Cl)ncnc32)oc2ccccc12,187 to 190 °C
26,c1ccc(-c2nn3c(N4CCCC4)nnc3c3ccccc23)cc1,245 to 247 °C

row,SMILES,melting point
1,OC1CCCc2nc3ccccc3c(NCCCC(c3ccccc3)c3ccccc3)c21 (stereo unspecified),147 to 148 °C
2,COc1ccccc1Sc1c(O)nc(C)[nH]c1=O,290 °C
3,Cc1cc2c(c3c1NC(=O)C(C)(C)C3)OC(C)(CN=[N+]=[N-])C2 (stereo unspecified),169 to 170 °C
4,FC(F)C(F)(F)Oc1cccc(Nc2nccc(-c3cccc(OC(F)(F)F)c3)n2)c1,98 to 100 °C
5,CCCCCCCCNC(=O)[C@@H]1C[C@H]1c1ccc([N+](=O)[O-])cc1 (relative stereo),126 to 129 °C
6,CC(C)(C)OC(=O)N1[C@@H](C(=O)O)C[C@H](S(=O)(=O)c2ccccc2)[C@H]1c1ccccc1F (racemic),186 °C
7,c1cc(C2CCC(c3ccc(OCC4CO4)cc3)CC2)ccc1OCC1CO1 (stereo unspecified),154 °C
8,Nc1nc(NCCc2ccccc2OCc2ccccc2)nc2nc(-c3ccco3)nn12,151 to 153 °C
9,COc1ccc(-c2cc(F)c(F)cc2-c2ccc(S(C)(=O)=O)cc2)cc1C,160 to 162 °C
10,CCCCCCOc1ccc(C(=O)Nc2ccc(-n3nc(C(F)(F)F)cc3C(F)(F)F)cc2)cc1,153 to 155 °C
11,CN1CCC(c2c[nH]c3ccc(C(=O)c4ccccc4)cc23)CC1,101 °C
12,O=c1[nH]sc2nc(N3CCCCC3)ncc12,268 to 269 °C
13,Cn1nnnc1Cc1ccc(NC(=O)/C=C/c2cnn(C)c2-c2ccc(F)cc2)cc1,243 to 244 °C
14,OCc1cnoc1-c1ccc(Cl)cc1Cl,76 to 77 °C
15,COC(=O)c1cc(Cn2cncc2C)cc(C(C)(C)C#N)c1,101 to 104 °C
16,CCOC(=O)c1cn(CCO)c2cc(-n3cccc3)c(F)cc2c1=O,237 to 239 °C
17,O=c1cc2c(nn1-c1ccc(Cl)cc1)-c1cc(CO)sc1CC2,195 to 197 °C
18,COc1cc2nc3ccccc3sc-2c(OC)c1=O,193 °C
19,Cn1nc(-c2ccccc2)c(C2CCCCC2)c1N,212 to 214 °C
20,c1ccc(Cn2cc3c(c2)OCCO3)cc1,69 to 70 °C
21,COc1cc(C(=O)NC2CN(C)C2)ccc1Nc1ncc2c(n1)N(C1CCCC1)CC(F)(F)C(=O)N2C,157 to 162 °C
22,C=CNC(=O)n1sc(OCC)nc1=O,123 °C
23,COc1cc(NC(N)=S)c(Cl)c(OC)c1,159 to 162 °C
